From PMC6120666 (The EMBO Journal, 2018) come the findings set out here.

Experiment [1] has as its target T1, NanoLuc-RIPK2 (Homo sapiens, UniProt O43353).
T1 construct: host or cells: hNOD2-HEKBlue cells
Description: nanoBRET cellular RIPK2 residence time assay in HEKBlue cells. The format is binding. The settings on record: t1/2 for probe to engage RIPK2 after washout of inhibitor. In general terms: BRET reads energy transfer from a luciferase to a nearby fluorophore.

Experiment [2] concerns NOD2/HEKBlue cells. Briefly: hNOD2-HEKBlue L18-MDP-induced NF-κB reporter assay. The conditions noted are these: for IC50: Homo sapiens, HEK-Blue, L18-MDP-induced NF-κB reporter, average ± SD of at least three titrations. The experiment is classed as cell-based, human. The method, then: For HEKBlue assay, cells were seeded into clear 96‐well plates at 7.5 × 10^3 cells/well and allowed to attach for 48 h. On the day of the experiment, media was changed to 100 μl of HEKBlue detection media (InvivoGen). Inhibitors were diluted and added in 0.5 μl DMSO 15 min prior to the addition of 1 ng/ml L18‐MDP (InvivoGen). After 8–9 h, absorbance at 620 nm was measured using Victor3V plate reader (Perkin Elmer, Waltham, MA). Values of media‐only wells were subtracted and %inhibition for each compound concentration relative to the DMSO/L18‐MDP‐treated controls was calculated. Inhibition values ± SD were fitted by non‐linear regression using Prism software (GraphPad Software, La Jolla, CA) to calculate IC50 values. For THP1Blue assay, 1 × 10^5 cells were seeded in 200 μl of RPMI media in 96‐well plates and treated with inhibitors in 0.5 μl DMSO for 15 min prior to the addition of 10 μg/ml MDP, 10 ng/ml Pam3CSK4, 10 ng/ml E. coli LPS, or 1 × 10^7 cells/ml heat‐killed L. monocytogenes (InvivoGen) for 24 h. After induction, 20 μl of media was mixed with 180 μl of QUANTI‐Blue reagent (InvivoGen) and incubated at 37°C for 3–4 h, followed by absorbance measurement at 620 nm. IC50 values were calculated as described for HEKBlue assay.
Cayman Chemical Company, Ann Arbor, MI), GSK583 (#HY-100339, MedChem Express, South Brunswick, NJ), WEHI-345 (MedKoo Biosciences, Morrisville, NC), Compound A (CpA, a kind gift from TetraLogic Pharmaceuticals, Malvern, PA). Generation of the CSLP compound series is described in Suebsuwong et al. 2018 (manuscript in preparation). hNOD2-HEKBlue and THP1Blue assays
For HEKBlue assay, cells were seeded into clear 96 well plates at 7.5x10^3 cells/well and allowed to attach for 48 h. On the day of the experiment, media was changed to 100 μl of HEKBlue detection media (InvivoGen). Inhibitors were diluted and added in 0.5 μl DMSO 15 min prior to the addition of 1 ng/ml L18-MDP (InvivoGen). After 8-9 h, absorbance at 620 nm was measured using Victor3V plate reader (Perkin Elmer, Waltham, MA). Values of media-only wells were subtracted and %inhibition for each compound concentration relative to the DMSO/L18-MDP-treated controls were calculated.
Inhibition values + StDev were fitted by non-linear regression using Prism software (GraphPad Software, La Jolla, CA) to calculate IC50 values. For THP1Blue assay, 1x10^5 cells were seeded in 200 μl of RPMI media in 96 well plates and treated with inhibitors in 0.5 μl DMSO 15 min prior to the addition of 10 µg/ml MDP, 10 ng/ml Pam3CSK4, 10 ng/ml E. coli LPS or 1x10^7 cells/ml heat-killed L. monocytogenes (InvivoGen) for 24 h. After induction, 20 μl of media was mixed with 180 μl of QUANTI-Blue reagent (InvivoGen) and incubated at 37 °C for 3-4 h, followed by absorbance measurement at 620 nm. IC50 values were calculated as described for HEKBlue assay. […]

For experiment [3], the target named is T1, NanoLuc-RIPK2. Briefly: nanoBRET cellular RIPK2 target engagement assay in HEKBlue cells. The settings on record: average ± SD of at least three titrations, read-out: IC50, Cellular activity, nanoBRET RIPK2 binding.
The test system of experiment [4] is RAW264.7 cells. Briefly: TNF ELISA, MDP-stimulated RAW264.7 cells. The experiment is classed as cell-based. The settings on record: Mus musculus, MDP 10 μg/ml, 24 h, read-out: RAW264.7 TNF release inhibition Est. IC50. The method, then: Figure 4 Cellular and in vivo characterization of novel RIPK2 inhibitors on inflammatory signaling • A, B ELISA measurement of TNF release from RAW264.7 cells treated with MDP (10 μg/ml, 24 h) and CSLP compounds or RIPK2 inhibitor WEHI‐345 as indicated. […] After 4 h, blood was collected by cardiac puncture and circulating levels of TNF were analyzed by ELISA. Data information: Data represent the mean ± SEM of three independent experiments. **P < 0.01, n.s., not significant. Two‐tailed unpaired Student's t‐test was used to determine statistical significance. See also Fig EV3. TEXT PRINTED IN THE PICTURE: (B) CSLP37: RAW264.7 TNF release inhibition Est. IC50 (nM): 12.6; RAW264.7 TNF release inhibition St. Err.: ±1.7 | (B) CSLP43: RAW264.7 TNF release inhibition Est. IC50 (nM): 1.2; RAW264.7 TNF release inhibition St. Err.: ±0.2 | (B) CSLP48: RAW264.7 TNF release inhibition Est. IC50 (nM): NI; RAW264.7 TNF release inhibition St. Err.: ±0.2 | (B) CSLP55: RAW264.7 TNF release inhibition Est. IC50 (nM): 143.0; RAW264.7 TNF release inhibition St. Err.: ±27.1 | (B) WEHI-345: RAW264.7 TNF release inhibition Est.
Cayman Chemical Company, Ann Arbor, MI), GSK583 (#HY-100339, MedChem Express, South Brunswick, NJ), WEHI-345 (MedKoo Biosciences, Morrisville, NC), Compound A (CpA, a kind gift from TetraLogic Pharmaceuticals, Malvern, PA). Generation of the CSLP compound series is described in Suebsuwong et al. 2018 (manuscript in preparation). […]
RAW264.7 cells were seeded into 12 well plates at a density of 1.5x10^5 cells/well in 1 ml of media.
Inhibitors were diluted and added in 1 μl DMSO 15 min prior to the addition of 10 μg/ml MDP or 10 ng/ml E. coli LPS for 24 h. For TNF measurements, 100 μl of undiluted media (MDP) or 5-fold diluted media was analyzed using Duo-Set anti-mouse TNF ELISA kit (R&D Systems, Minneapolis, MN).
Values of media-only wells were subtracted and %inhibition for each compound concentration relative to the DMSO/MDP (or LPS)-treated controls were calculated. Inhibition values + StDev were fitted by non-linear regression using Prism software (GraphPad) to calculate IC50 values. […]
A general note: ELISA stands for enzyme-linked immunosorbent assay.

T1 sequence (O43353 whole entry): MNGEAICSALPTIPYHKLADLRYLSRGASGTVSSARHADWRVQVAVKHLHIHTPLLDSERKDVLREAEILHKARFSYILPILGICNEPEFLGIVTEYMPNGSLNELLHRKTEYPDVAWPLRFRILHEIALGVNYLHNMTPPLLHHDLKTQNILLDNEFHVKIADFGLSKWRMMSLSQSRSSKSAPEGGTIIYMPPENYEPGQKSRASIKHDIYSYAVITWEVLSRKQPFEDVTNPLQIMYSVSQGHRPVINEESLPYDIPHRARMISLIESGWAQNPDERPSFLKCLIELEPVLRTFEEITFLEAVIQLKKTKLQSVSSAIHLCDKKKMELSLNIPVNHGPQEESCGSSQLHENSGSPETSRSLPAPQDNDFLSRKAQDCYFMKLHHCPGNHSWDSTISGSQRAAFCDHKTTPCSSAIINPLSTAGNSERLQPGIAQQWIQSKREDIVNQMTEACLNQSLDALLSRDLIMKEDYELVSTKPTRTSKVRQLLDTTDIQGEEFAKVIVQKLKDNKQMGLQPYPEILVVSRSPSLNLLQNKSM

For orientation: IC50 means the point on the concentration scale where inhibition reaches its midpoint. In experiment [1], `CCCS(=O)(=O)Nc1cc(-c2cc(-c3ccc(N4CCNCC4)cc3)cnc2N)cc(F)c1OC` [CSLP37] yielded a residence time of 27.1 min. The IC50 in experiment [2] is 26.3 ± 3.7 nM; in experiment [3] it was 36.3 ± 20.2 nM; in experiment [4], 12.6 nM.
For `CCCS(=O)(=O)Nc1cc(-c2cc(-c3ccc(N4CCNCC4)cc3)cnc2N)cc(OC)c1OC` [CSLP43], in that order: 107 min, 1.3 ± 0.4 nM, 10.1 ± 3.8 nM and 1.2 nM.
`CCCS(=O)(=O)Nc1cc(-c2cc(-c3ccc(N4CCNCC4)cc3)cnc2N)ccc1O` [CSLP48] showed a residence time in experiment [1] of 127 min. Further, the IC50 in experiment [2] was greater than 5000 nM; in experiment [3], 1230 nM; in experiment [4] it was greater than 1000 nM.
Compound `COc1cc(-c2cc(-c3ccc(N4CCNCC4)cc3)cnc2N)cc(F)c1OC` [CSLP55] registered a residence time in experiment [1] of 6.8 min. Besides, the figures for the IC50 in experiment [2], in experiment [3] and in experiment [4] were 595 ± 69.6 nM, 195 ± 47.1 nM and 143 nM, respectively.
For the compound `Cc1ccc(-c2nn(C(C)(C)CNC(=O)c3ccncc3)c3ncnc(N)c23)cc1` [WEHI‐345, reference compound], the residence time in experiment [1] is 7.5 min. Further, the values for the IC50 in experiment [2], in experiment [3] and in experiment [4] were 3370 nM, 521 ± 172 nM and 123 nM, respectively. For the same compound, the “fold lower cellular potency than against RIPK2 kinase in vitro” value in experiment [2] (Table 1, Fig 4A) is recorded as greater than 10 fold.
